From patent US9023789B2, “Amylin analogs and pharmaceutical compositions thereof” (Novo Nordisk A/S, priority 2012, dated 2015)
Where two headings read alike, the source gives them in different places. Numbered stars: 1 amine (or outer) side, 2 acyl side, 3 side chain; on linkers, the order of the positions; unused ones are H or OH. Bridge positions count the residues as written; N and C are the ends. Side chains are listed from the residue outwards. Peptide text beside a SMILES is read from it. * marks the point of attachment. C20 diacid = O=C(O)CCCCCCCCCCCCCCCCCCC(=O)*; γGlu = O=C(O)[C@H](CCC(=O)[*:2])N[*:1]; AEEA = NCCOCCOCC(=O)O

Tests used:
[1] = target: T1, human amylin 3(a) receptor (human calcitonin receptor + RAMP-3) in BHK570 cells (Homo sapiens, UniProt O60896+P30988); assay: ASSAY (II)a functional assay, human amylin receptor (CRE luciferase); type: cell-based
T1 construct: expressed in transfected cells
T1 sequence (O60896 24-148): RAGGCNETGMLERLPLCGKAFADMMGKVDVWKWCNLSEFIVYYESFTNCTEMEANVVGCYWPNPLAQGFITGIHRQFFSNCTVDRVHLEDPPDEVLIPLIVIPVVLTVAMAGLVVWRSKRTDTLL
T1 sequence (P30988 25-474): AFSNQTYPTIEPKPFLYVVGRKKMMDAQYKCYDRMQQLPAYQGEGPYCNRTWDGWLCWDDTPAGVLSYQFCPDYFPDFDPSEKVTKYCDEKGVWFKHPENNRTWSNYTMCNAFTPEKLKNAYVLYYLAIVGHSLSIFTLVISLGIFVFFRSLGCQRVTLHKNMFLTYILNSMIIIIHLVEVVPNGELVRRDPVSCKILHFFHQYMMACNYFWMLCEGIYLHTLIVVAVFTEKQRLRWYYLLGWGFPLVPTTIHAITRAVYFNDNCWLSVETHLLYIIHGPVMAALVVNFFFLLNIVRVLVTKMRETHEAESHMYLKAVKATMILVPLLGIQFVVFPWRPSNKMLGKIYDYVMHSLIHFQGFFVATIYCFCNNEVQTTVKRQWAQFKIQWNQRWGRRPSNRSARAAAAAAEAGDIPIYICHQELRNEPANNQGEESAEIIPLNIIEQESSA
Summary of the method: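 Ligand exposure 3 h at 37 °C, 5% CO2 in DMEM with 10% FBS, 10 mM Hepes pH 7.4. cAMP-driven luciferase read by luminescence after 30 min LucLite at room temperature.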

[2] = target: T2, rat amylin receptor (rat calcitonin receptor + rat RAMP 3) (Rattus norvegicus, UniProt P32214+Q9JJ73); assay: ASSAY (VI) binding to the rat amylin receptor; conditions: for IC50: binding to rat amylin receptor, read-out: rAmylin-R bind IC50
T2 construct: expressed in transfected cells; host or cells: BHK tk'ts 13 (transient, FuGENE 6), membranes
T2 sequence (P32214 25-479 isoform P32214-2 limits assumed): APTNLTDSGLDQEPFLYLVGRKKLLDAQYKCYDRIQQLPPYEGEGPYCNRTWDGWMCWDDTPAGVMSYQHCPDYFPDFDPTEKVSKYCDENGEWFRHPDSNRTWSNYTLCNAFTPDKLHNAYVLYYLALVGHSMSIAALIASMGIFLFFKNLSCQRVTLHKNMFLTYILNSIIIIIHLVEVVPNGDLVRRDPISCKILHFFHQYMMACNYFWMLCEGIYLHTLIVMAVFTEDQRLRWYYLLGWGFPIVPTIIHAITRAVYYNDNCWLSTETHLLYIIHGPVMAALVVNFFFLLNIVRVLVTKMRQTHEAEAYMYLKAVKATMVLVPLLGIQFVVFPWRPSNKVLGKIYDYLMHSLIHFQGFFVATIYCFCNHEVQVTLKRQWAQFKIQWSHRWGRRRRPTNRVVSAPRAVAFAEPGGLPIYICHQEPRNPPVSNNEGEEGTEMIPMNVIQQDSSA
T2 sequence (Q9JJ73 23-147 partner): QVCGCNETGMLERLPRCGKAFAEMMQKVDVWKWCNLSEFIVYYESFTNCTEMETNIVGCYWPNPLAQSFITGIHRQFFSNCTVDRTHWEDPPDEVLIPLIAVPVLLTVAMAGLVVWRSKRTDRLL
Summary of the method: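 This assay measured binding to the rat amylin receptor. BHK tk′ts 13 cells were transiently transfected with the rat calcitonin receptor using FuGENE® 6 (Roche), following the manufacturer's recommendations. About 48 hours after transfection, the cells were harvested and membranes were prepared from them for the binding determination.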

[3] = ASSAY (IV) determination of solubility; type: physicochemical
Summary of the method: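 Dissolve polypeptide in water ([…] stock); combine 1:1 with each 100 mM buffer (glycylglycine pH 3.0/4.0/5.0; bistrispropane pH 6.0/6.5/7.0/7.5/8.0); hold 18 hours at room temperature; centrifuge; quantify polypeptide by UPLC.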

[4] = hCTR funct. EC50 divided by hAmylin-R funct. EC50
[5] = human functional selectivity: hCTR funct. EC50 / hAmylin-R funct. EC50
[6] = Table 7, rat binding selectivity, rCTR IC50 / rAmylin-R IC50
[7] = Table 7a (preferred compounds), rat binding selectivity, rCTR IC50 / rAmylin-R IC50
[8] = ratio of rCTR bind IC50 to rAmylin-R bind IC50
[9] = bistrispropane buffer, pH 6.5, read-out: Solubility pH 6.5 Concentration
[10] = bistrispropane buffer, pH 7.5, read-out: Solubility pH 7.5 Concentration
[11] = bistrispropane buffer, pH 6.0, read-out: Solubility pH 6.0 Concentration
[12] = bistrispropane buffer, pH 7.0, read-out: Solubility pH 7.0 Concentration
[13] = bistrispropane buffer, pH 8.0, read-out: Solubility pH 8.0 Concentration
[14] = glycylglycine buffer, pH 3.0, read-out: Solubility pH 3.0 Concentration
[15] = glycylglycine buffer, pH 4.0, read-out: Solubility pH 4.0 Concentration
[16] = glycylglycine buffer, pH 5.0, read-out: Solubility pH 5.0 Concentration

Ratio hCT/hAmylin funct. [1, 4] | Ratio hCT/hAmylin funct. ([1]; hCTR funct. EC50 over hAmylin-R funct. EC50) | Ratio hCT/hAmylin funct. [1, 5] | IC50 ([2]; Table 7) [nM] | Ratio rCT/rAmylin binding [2, 6] | Ratio rCT/rAmylin binding [2, 7] | Ratio rCT/rAmylin binding [2, 8] | solubility at 18 h [3, 9] [µM] | solubility at 18 h [3, 10] [µM] | solubility at 18 h [3, 11] [µM] | solubility at 18 h [3, 12] [µM] | solubility at 18 h [3, 13] [µM] | solubility at 18 h [3, 14] [µM] | solubility at 18 h [3, 15] [µM] | solubility at 18 h [3, 16] [µM] | Compound
138.7 | 138.7 | 138.7 | 3.48 | 35.6 | 35.6 | 35.6 | ≥ 200 | ≥ 200 | ≥ 200 | ≥ 200 | ≥ 200 | ≥ 200 | ≥ 200 | ≥ 200 | CC[C@H](C)[C@H](NC(=O)[C@H](C)NC(=O)CNC(=O)[C@H](Cc1ccccc1)NC(=O)[C@H](CC(N)=O)NC(=O)[C@@H]1CCCN1C(=O)[C@H](CO)NC(=O)[C@H](CO)NC(=O)[C@H](Cc1c[nH]cn1)NC(=O)[C@H](CCCNC(=N)N)NC(=O)[C@H](CC(C)C)NC(=O)[C@H](Cc1ccccc1)NC(=O)[C@H](CCCNC(=N)N)NC(=O)[C@H](C)NC(=O)[C@H](CC(C)C)NC(=O)[C@H](CCCNC(=N)N)NC(=O)[C@H](CCC(N)=O)NC(=O)[C@@H](NC(=O)[C@H](C)NC(=O)[C@@H]1CSSC[C@H](NC(=O)[C@@H](N)CCCCNC(=O)CC[C@H](NC(=O)CCCCCCCCCCCCCCCCCCC(=O)O)C(=O)O)C(=O)N[C@@H](CC(N)=O)C(=O)N[C@@H]([C@@H](C)O)C(=O)N[C@@H](C)C(=O)N[C@@H]([C@@H](C)O)C(=O)N1)[C@@H](C)O)C(=O)N1CCC[C@H]1C(=O)N[C@@H](CO)C(=O)N[C@@H](CO)C(=O)N[C@H](C(=O)N1CCC[C@H]1C(=O)N[C@H](C(=O)NCC(=O)N[C@@H](CO)C(=O)N[C@@H](CC(N)=O)C(=O)N[C@H](C(=O)N[C@@H](Cc1ccc(O)cc1)C(N)=O)[C@@H](C)O)C(C)C)[C@@H](C)O [Example 63] (H-K([γGlu-C20 diacid])CNTATCATQRLARFLRHSSPNFGAIPSSTPVGSNTY-NH2; disulfide 2-7 (inferred); N-terminus assumed)
9.4 | – | 9.4 | 0.276 | 162.4 | 162.4 | 162.4 | ≥ 200 | ≥ 200 | ≥ 200 | ≥ 200 | ≥ 200 | ≥ 200 | ≥ 200 | ≥ 200 | CC[C@H](C)[C@H](NC(=O)[C@H](C)NC(=O)CNC(=O)[C@H](Cc1ccccc1)NC(=O)[C@H](CC(N)=O)NC(=O)[C@@H]1CCCN1C(=O)[C@H](CO)NC(=O)[C@H](CO)NC(=O)[C@H](Cc1c[nH]cn1)NC(=O)[C@H](CCCNC(=N)N)NC(=O)[C@H](CC(C)C)NC(=O)[C@H](Cc1ccccc1)NC(=O)CNC(=O)[C@H](C)NC(=O)[C@H](CC(C)C)NC(=O)[C@H](CCCNC(=N)N)NC(=O)[C@H](CCC(N)=O)NC(=O)[C@@H](NC(=O)[C@H](C)NC(=O)[C@@H]1CSSC[C@H](NC(=O)[C@@H](N)CCCCNC(=O)COCCOCCNC(=O)CC[C@H](NC(=O)CCCCCCCCCCCCCCCCCCC(=O)O)C(=O)O)C(=O)N[C@@H](CC(N)=O)C(=O)N[C@@H]([C@@H](C)O)C(=O)N[C@@H](C)C(=O)N[C@@H]([C@@H](C)O)C(=O)N1)[C@@H](C)O)C(=O)N1CCC[C@H]1C(=O)N[C@@H](CO)C(=O)N[C@@H](CO)C(=O)N[C@H](C(=O)N1CCC[C@H]1C(=O)N[C@H](C(=O)NCC(=O)N[C@@H](CO)C(=O)N[C@@H](CC(N)=O)C(=O)N[C@H](C(=O)N[C@@H](Cc1ccc(O)cc1)C(N)=O)[C@@H](C)O)C(C)C)[C@@H](C)O [Example 71] (H-K([AEEA-γGlu-C20 diacid])CNTATCATQRLAGFLRHSSPNFGAIPSSTPVGSNTY-NH2; disulfide 2-7)
